Experiments:
CCL22 T56A = target: T1, CCL22 T56A (Homo sapiens, UniProt O00626, T56A); test: Calcium responses induced by chemokine mutant, neutraligand protocol; assay type: cell-based; settings: 10 μM compound, 5 nM chemokine; remaining response
T1 construct: codes for the mature CCL17 or CCL22 with an N-terminal thioredoxin-hexahistidin (TRX- (His)6) tag; TRX-(His)6 (N, cleaved yes); made in house; host or cells: E. coli BL21 (DE3)

CCR4 = target: T2, CCR4 (Homo sapiens, UniProt P51679); test: EGFP-CCR4 receptor surface level / endocytosis on EGFP-CCR4+ HEK cells; assay type: cell-based; settings: without chemokine, data not shown
T2 construct: signal peptide fused to EGFP (N); expressed in transfected cells; host or cells: HEK-293
T2 sequence (P51679 1-360): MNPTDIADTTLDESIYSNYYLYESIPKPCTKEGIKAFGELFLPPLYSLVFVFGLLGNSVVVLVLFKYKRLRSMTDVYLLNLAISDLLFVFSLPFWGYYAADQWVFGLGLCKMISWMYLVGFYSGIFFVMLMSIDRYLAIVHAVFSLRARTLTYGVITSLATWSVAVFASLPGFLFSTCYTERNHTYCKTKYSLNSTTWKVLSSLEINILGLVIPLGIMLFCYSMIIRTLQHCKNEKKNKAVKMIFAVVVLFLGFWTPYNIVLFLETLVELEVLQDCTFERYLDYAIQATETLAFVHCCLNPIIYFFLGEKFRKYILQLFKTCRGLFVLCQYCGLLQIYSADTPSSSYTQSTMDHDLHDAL
Description: CCR4 levels were evaluated by flow cytometry (FACSCalibur, BD biosciences) using cell surface labeling of EGFP with monoclonal mouse anti-GFP (Roche Applied Science; 1:100 dilution) as primary antibody and R-phycoerythrin conjugated AffiniPure F (ab’)2 fragment goat anti-mouse (Immunotech; 1/100) as secondary antibody.

CCR4+ HUT78 cells = test: HUT78 chemotaxis: compounds alone or preincubated with the cells (antagonist protocol); assay type: cell-based, human; settings: for chemotactic activity of the compound by itself: HUT78 cells, no chemokine; for inhibition of CCR4+ HUT78 T cell migration, compound preincubated with the cells: receptor antagonist protocol, 1 μM, 3 nM CCL17 or CCL22
Description: Cell migration was carried out in RPMI1640-BSA (0.1%) using Transwell 96-well plates (Corning Costar, 5 μm pore size, polycarbonate membranes). […] Lower wells contained the same medium diluted with DMSO or chemokine (3 nM CCL17 or CCL22).
0.1% BSA using Transwell 96-well plates (Corning Costar, 5µm pore size, polycarbonate […]
the same medium diluted with DMSO or chemokine (3nM CCL17 or CCL22). In neutraligand inhibition studies, prior to their use, CCL17 (a) and CCL22 (b) were pre-incubated with […]
in the lower compartment. For characterization of the antagonist properties, the compounds were pre-incubated with the cells in the upper compartment. C-021 (1µM, stripped bars), the CCR4 receptor antagonist, was used as a control in both incubation protocols. Results are expressed as the percentage of cells that migrated to the lower chamber. Data represent the means±SD. Experiments were performed in triplicate.
(1 picture or pasted object on this page, not shown here)

COX1 = target: T3, COX1 (Homo sapiens, UniProt P23219); test: COX1 mediated PGE2 release in primary monocytes; assay type: cell-based; settings: monocytes + arachidonic acid
T3 construct: endogenous in cells; host or cells: primary human monocytes
T3 sequence (P23219 24-599): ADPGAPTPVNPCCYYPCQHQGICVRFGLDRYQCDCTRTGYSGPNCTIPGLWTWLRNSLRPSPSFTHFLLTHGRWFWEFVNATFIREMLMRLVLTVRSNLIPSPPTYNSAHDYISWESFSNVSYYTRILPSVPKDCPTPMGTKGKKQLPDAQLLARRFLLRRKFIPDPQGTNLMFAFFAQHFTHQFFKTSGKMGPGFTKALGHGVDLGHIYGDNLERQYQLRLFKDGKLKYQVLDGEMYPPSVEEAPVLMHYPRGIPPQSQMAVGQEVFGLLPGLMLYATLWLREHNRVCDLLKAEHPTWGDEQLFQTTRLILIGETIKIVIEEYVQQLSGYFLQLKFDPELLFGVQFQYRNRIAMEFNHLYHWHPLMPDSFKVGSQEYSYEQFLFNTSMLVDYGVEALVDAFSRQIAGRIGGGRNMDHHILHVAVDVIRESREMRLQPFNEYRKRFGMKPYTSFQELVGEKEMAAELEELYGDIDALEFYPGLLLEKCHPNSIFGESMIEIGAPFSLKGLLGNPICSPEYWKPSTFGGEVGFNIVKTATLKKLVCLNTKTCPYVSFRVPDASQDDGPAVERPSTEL
Description: the wound closure was determined as the difference between wound width at times 0 and 72h. This experiment was repeated three times.
Human primary monocytes were isolated from buffy coats of healthy human blood donors and seeded in 24-well plates (500,000 cells/ml in 1ml) for COX-1/2 activity or 96-well plates for cell viability experiments.
Cells were seeded in 96 well plates (5,000 cells/well in 200µl) for cytotoxicity testing (Alamar […]
doses). After 24h, cytotoxicity was evaluated in the wells using the Alamar Blue method. NaF (250µg/ml) was used as a control in this experiment.
Cyclooxygenase (COX) activity
COX1 mediated prostaglandin E2 (PGE2) release. Monocytes were treated with arachidonic […]
were then collected for the determination of PGE2 by enzyme immunoassay (EIA) […]
COX2 mediated prostaglandin E2 (PGE2) release. Monocytes were incubated with LPS (10U/ml) for 24h to induce COX2 protein synthesis. After renewal of medium (serum free), […]
before AA treatment. The activity of COX2 was determined by measuring PGE2 (Cayman) in the supernatants by EIA. Aspirin (10µM) and diclofenac (10µM) were used as control […]
NaF (250µg/ml) was used as a control (relative light unit, r.l.u). (c) Monocytes were treated […]
GPN136 (grey bars). The activity of COX1 was determined by measuring prostaglandin E2 (PGE2). […]
of COX2 was determined by measuring PGE2. […]

T1 sequence (O00626 25-93 T56A): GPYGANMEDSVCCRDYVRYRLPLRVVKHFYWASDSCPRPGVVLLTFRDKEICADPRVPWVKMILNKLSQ

Row | Structure (SMILES) | calcium response induced by CCL22 T56A preincubated with compound (CCL22 T56A) | effect on CCR4 receptor surface level on its own (CCR4) | chemotactic activity of the compound by itself (CCR4+ HUT78 cells) | inhibition of CCR4+ HUT78 T cell migration, compound preincubated with the cells (CCR4+ HUT78 cells) | effect on COX1 activity (PGE2) (COX1; 100 µM) | doses at which COX1 activity is inhibited (COX1) [µM]
1 | CC(C)=CCn1cnc2c1c(=O)n(C)c(=O)n2C [GPN279, 1,3-dimethyl-7-(3-methylbut-2-enyl)-1H-purine-2,6(3H, 7H)-dione] | neither inhibited WT nor CCL22 mutants | Neither GPN279 nor GPN136 did alter | devoid of chemotactic activity | no ability to inhibit | no effect | 
2 | O=C(OCC(O)CO)c1ccccc1O (stereo not shown) [GPN136, 2,3-dihydroxypropyl 2-hydroxybenzoate] | 40.0 ± 6.0% | Neither GPN279 nor GPN136 did alter | devoid of chemotactic activity | no ability to inhibit |  | > 100

From article PMC4595804, “A strategy to discover decoy chemokine ligands with an anti-inflammatory activity” (Scientific Reports, 2015)
